Test results as given in US8183293B2, “Phenyl acetic acid derivatives” (Amgen Inc., priority 2007, dated 2012).
Entries after “also recorded” stand apart in the source; their conditions may differ. Like-named read-outs stand apart in the source and are kept apart here.

How the values were obtained:
[1] = target: T1, DP (Homo sapiens, UniProt Q13258); experiment: DP activity (IC50); format: binding
T1 sequence (Q13258 1-359): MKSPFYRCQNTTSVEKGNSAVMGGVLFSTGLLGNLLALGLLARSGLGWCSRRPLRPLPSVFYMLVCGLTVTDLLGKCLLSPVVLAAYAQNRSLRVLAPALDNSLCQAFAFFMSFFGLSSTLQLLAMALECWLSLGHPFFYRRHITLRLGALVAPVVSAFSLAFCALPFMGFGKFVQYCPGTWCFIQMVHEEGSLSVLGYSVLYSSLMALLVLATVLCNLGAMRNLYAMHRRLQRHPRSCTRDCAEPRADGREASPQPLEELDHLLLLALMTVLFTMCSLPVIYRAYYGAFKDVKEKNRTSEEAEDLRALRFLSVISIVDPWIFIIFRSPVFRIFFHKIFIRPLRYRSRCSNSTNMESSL

[2] = target: T2, human CRTH2 (Homo sapiens, UniProt Q9Y5Y4); experiment: Human CRTH2 binding assay (3H-PGD2, 293(124) cells)
T2 construct: Full-length human CRTH2 cDNA was generated by polymerase chain reaction (PCR); expressed in transfected cells; host or cells: 293 cells stably transfected with pHLT124 (pCDNA3.1(+)), named 293(124)
T2 sequence (Q9Y5Y4 1-395): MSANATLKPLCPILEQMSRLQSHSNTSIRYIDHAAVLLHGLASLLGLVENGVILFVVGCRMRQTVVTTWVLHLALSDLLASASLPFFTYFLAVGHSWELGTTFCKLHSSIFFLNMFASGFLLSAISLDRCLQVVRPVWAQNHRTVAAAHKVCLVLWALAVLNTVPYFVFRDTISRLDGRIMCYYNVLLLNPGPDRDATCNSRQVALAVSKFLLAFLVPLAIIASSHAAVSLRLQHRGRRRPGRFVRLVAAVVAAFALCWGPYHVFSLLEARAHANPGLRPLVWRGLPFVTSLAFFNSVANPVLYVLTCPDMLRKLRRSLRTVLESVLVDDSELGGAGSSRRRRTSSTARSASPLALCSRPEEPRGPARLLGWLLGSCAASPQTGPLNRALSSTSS
Procedure: Full-length human CRTH2 cDNA was generated by polymerase chain reaction (PCR) using human genomic DNA as template and subsequently cloned into pCDNA3.1(+) (Invitrogen), generating a CRTH2 expression plasmid pHLT124. The plasmid was transfected into 293 cells, […], using LipofectAMINE™ reagents (Gibco/BRL). G418 ([…]) was added to the culture 48 h after transfection and cells were maintained under selection for 3 weeks to ensure that all surviving cells stably expressed CRTH2. These cells are labeled as 293(124) hereafter.
^3H-PGD2 binding assay was performed using 293(124) cells. […] Each assay contained 25,000 cells, appropriate amount of test compound when necessary and a mixture of 1 nM ^3H-PGD2 (Amersham Pharmacia Biotech) and 30 nM of unlabeled PGD2 (Cayman Chemicals) in […] final volume. The cell mixture was incubated at room temperature for 2.5 h with shaking and the cells were separated from free ^3H-PGD2 and transferred onto a filter plate using a cell harvester. Radioactivity bound to the cells was measured on a liquid scintillation counter. Nonspecific binding was determined in the presence of […] of unlabeled PGD2.

[3] = In vitro covalent binding to protein, human liver microsomes; format: in vitro ADME; settings: in the presence of NADPH cofactor
Procedure: (§1) The propensity of AMG 009 metabolism to generate reactive metabolites was conducted in studies to evaluate in vitro covalent binding to protein by standardized methods (Day, et al., J. Pharmacol. Toxicol. Methods., 52, 278-285 (2005)).

[4] = system: antigen-induced airway response; experiment: Sheep airway response model of asthma; format: in vivo
Text: (§2) The sheep and guinea pig models employed herein are disclosed in publications such as Abraham, W. M., Sheep Models of Allergic Bronchoconstriction)(in Allergy and Allergic Disease 2:1045 1977); Isenberg-Feig, H et al., Animal Models of Allergic Asthma (in Current Allergy and Asthma Reports 2003, 3:70-78); Abraham, W. M., et al. Am J Respir Crit. Care Med vol. 159. pp. 1205-1214, 1999; Abraham, W. M. et al, Am J Respir Crit. Care Med vol. 169. pp. 97-104, 2004; and Jones, T. R. et al Can. J. Physiol. Pharmacol. 73: 191-201 1995.

[5] = In vitro covalent binding to protein, rat liver microsomes; format: in vitro ADME; settings: in the presence of NADPH cofactor
Procedure: as §1

[6] = system: PGD2-induced airway constriction; experiment: Guinea pig model of airway constriction; format: in vivo; settings: animals pretreated with aerosolized PGD2 at doses as high as 0.625 mg/mL, FIG. 5
Text: as §2, with “FIGS. 6A and 6B are graphs comparing the efficacy of AMG 009 (FIG. 6A) and Example Compound 14 (FIG. 6A) in the Guinea Pig Model of airway constriction. The” for “The”

[7] = Hygroscopicity of polymorph; format: physicochemical
[8] = buffer, read-out: DP IC50 (nM) Buffer
[9] = plasma, read-out: DP IC50 (nM) Plasma
[10] = buffer, read-out: CRTH2 IC50 (nM) Buffer
[11] = plasma, read-out: CRTH2 IC50 (nM) Plasma
[12] = whole blood, read-out: DP IC50 (nM) whole blood
[13] = whole blood, read-out: CRTH2 IC50 (nM) whole blood

| SMILES | IC50 [1, 8] | IC50 [1, 9] | IC50 [2, 10] | IC50 [2, 11] | further results |
| --- | --- | --- | --- | --- | --- |
| CC(C)(C)NC(=O)c1ccc(Oc2cc(F)c(CC(=O)O)cc2Cl)c(NS(=O)(=O)c2ccc(OC(F)(F)C(F)F)cc2Cl)c1 | 5.9 nM | 52.5 nM | 4.6 nM | 10.9 nM | – |
| CC(C)(C)NC(=O)c1ccc(Oc2cc(F)c(CC(=O)O)cc2Cl)c(NS(=O)(=O)c2ccc(OC(F)(F)F)cc2Cl)c1 | 14.5 nM | 37.8 nM | 9.3 nM | 19.4 nM | IC50 [1, 12]: 17.3 nM; IC50 [2, 13]: 2 nM |
| CC1(NC(=O)c2ccc(Oc3cc(F)c(CC(=O)O)cc3Cl)c(NS(=O)(=O)c3ccc(C(F)(F)F)cc3Cl)c2)CCC1 | 15.1 nM | 41.9 nM | 8.1 nM | 18.4 nM | – |
| CC1(NC(=O)c2ccc(Oc3cc(F)c(CC(=O)O)cc3Cl)c(NS(=O)(=O)c3ccc(OC(F)(F)F)cc3Cl)c2)CCC1 | 10.7 nM | 31.9 nM | 6.2 nM | 15.7 nM | – |
| CCC(C)(C)NC(=O)c1ccc(Oc2cc(F)c(CC(=O)O)cc2Cl)c(NS(=O)(=O)c2ccc(C(F)(F)F)cc2Cl)c1 | 15.6 nM | 51.6 nM | 10 nM | 35.8 nM | – |
| CCC(C)(C)NC(=O)c1ccc(Oc2cc(F)c(CC(=O)O)cc2Cl)c(NS(=O)(=O)c2ccc(C)cc2Cl)c1 | 3.9 nM | 21.8 nM | 4.9 nM | 10.9 nM | IC50 [1, 12]: 18.3 nM |
| CC(C)(C)NC(=O)c1ccc(Oc2cc(F)c(CC(=O)O)cc2Cl)c(NS(=O)(=O)c2ccc(Cl)cc2Cl)c1 | 18 nM | 79 nM | 5 nM | 13 nM | – |
| CCCCNC(=O)c1ccc(Oc2ccc(CC(=O)O)cc2OC)c(NS(=O)(=O)c2ccc(Cl)cc2Cl)c1 [AMG 009] | – | – | – | – | covalent binding of radioactive equivalents to protein [3]: ~50 pmol equivalent/mg protein; antigen-induced late airway response ([4]; 7.5 mg/kg (multi-dose), FIG. 3A): inhibits; antigen-induced development of airway hyperreactivity to carbochol ([4]; 7.5 mg/kg (multi-dose), FIG. 3B): inhibits; antigen-induced late airway response ([4]; 7.5 mg/kg (single dose), FIG. 1A): inhibits; antigen-induced development of airway hyperreactivity to carbochol ([4]; 7.5 mg/kg (single dose), FIG. 1B): inhibits; antigen-induced late airway response ([4]; 15 mg/kg (single dose), FIG. 2A): inhibits; antigen-induced development of airway hyperreactivity to carbochol ([4]; 15 mg/kg (single dose), FIG. 2B): inhibits; allergen-induced recruitment of inflammatory cells to the lung (BAL) ([4]; sheep airway response model): blocked; also recorded: effective in blocking; antigen-induced development of airway hyper-reactivity (AHR) to carbachol ([4]; sheep airway response model): blocks; antigen-induced late airway response (LAR) ([4]; sheep airway response model): inhibits; covalent binding of radioactive equivalents to protein [5]: ~50 pmol equivalent/mg protein |
| CC(C)(C)NC(=O)c1ccc(Oc2cc(F)c(CC(=O)O)cc2Cl)c(NS(=O)(=O)c2ccc(C3CC3)cc2Cl)c1 [Example Compound 14, 2-(4-(4-(tert-butylcarbamoyl)-2-(2-chloro-4-cyclopropylphenylsulfonamido)phenoxy)-5-chloro-2-fluorophenyl)acetic acid] | – | – | – | – | response in Guinea Pig Model [6]: dose-dependent response |
| CC(C)(C)NC(=O)c1ccc(Oc2cc(F)c(CC(=O)O)cc2Cl)c(NS(=O)(=O)c2ccc(C3CC3)cc2Cl)c1 [Form II, 2-(4-(4-(tert-butylcarbamoyl)-2-(2-chloro-4-cyclopropylphenylsulfonamido)phenoxy)-5-chloro-2-fluorophenyl)acetic acid] | – | – | – | – | hygroscopicity [7]: non hygroscopic |
| CCNC(=O)c1ccc(Oc2ccc(CC(=O)O)cc2)c(NS(=O)(=O)c2ccc(Cl)cc2Cl)c1 [reference compound] | 120 nM | 8420 nM | 4 nM | 92 nM | – |
| CCCCNC(=O)c1ccc(Oc2ccc(CC(=O)O)cc2Cl)c(NS(=O)(=O)c2ccc(Cl)cc2)c1 [reference compound] | 9.1 nM | 100 nM | – | – | – |

Continued by falling IC50 [2, 10], values first:

| IC50 [1, 8] | IC50 [1, 9] | IC50 [2, 10] | IC50 [2, 11] | SMILES | further results |
| --- | --- | --- | --- | --- | --- |
| 4.4 nM | 25.7 nM | 3.9 nM | 7.6 nM | CC1(NC(=O)c2ccc(Oc3cc(F)c(CC(=O)O)cc3Cl)c(NS(=O)(=O)c3ccc(C4CC4)cc3Cl)c2)CCC1 | – |
| 12.6 nM | 43 nM | 3.5 nM | 8.1 nM | CC(C)(C)NC(=O)c1ccc(Oc2cc(F)c(CC(=O)O)cc2Cl)c(NS(=O)(=O)c2ccc(C(F)(F)F)cc2Cl)c1 | IC50 [1, 12]: 26.6 nM; IC50 [2, 13]: 1.1 nM |
| 5.6 nM | 17.2 nM | 3.3 nM | 6.1 nM | Cc1ccc(S(=O)(=O)Nc2cc(C(=O)NC(C)(C)C)ccc2Oc2cc(F)c(CC(=O)O)cc2Cl)c(Cl)c1 | – |
| 4.6 nM | 18 nM | 3.3 nM | 7.9 nM | O=C(O)Cc1cc(Cl)c(Oc2ccc(C(=O)NC3CCC3)cc2NS(=O)(=O)c2ccc(C3CC3)cc2Cl)cc1F | IC50 [1, 12]: 0.6 nM; IC50 [2, 13]: 0.5 nM |
| 2.8 nM | 25.6 nM | 3.2 nM | 12.1 nM | Cc1ccc(S(=O)(=O)Nc2cc(C(=O)NC3(C)CCC3)ccc2Oc2cc(F)c(CC(=O)O)cc2Cl)c(Cl)c1 | – |
| 5 nM | 39 nM | 3 nM | 10 nM | CC(C)(C)NC(=O)c1ccc(Oc2cc(F)c(CC(=O)O)cc2F)c(NS(=O)(=O)c2ccc(C3CC3)cc2Cl)c1 | – |
| 3 nM | 26 nM | 3 nM | 8 nM | CC(C)(C)NC(=O)c1ccc(Oc2cc(F)c(CC(=O)O)cc2Cl)c(NS(=O)(=O)c2ccc(C3CC3)cc2Cl)c1 [drawing 69] | IC50 [1, 12]: 1 nM; IC50 [2, 13]: 0.2 nM |
| – | – | 2.7 nM | 16.7 nM | CCNC(=O)c1ccc(Oc2ccc(CC(=O)O)cc2Cl)c(NS(=O)(=O)c2ccc(OC)cc2)c1 [reference compound] | – |
| – | – | 2.3 nM | 26 nM | CCNC(=O)c1ccc(Oc2ccc(CC(=O)O)cc2Cl)c(NS(=O)(=O)c2ccc(C)cc2)c1 [reference compound] | – |
| 12 nM | – | 2.2 nM | 71 nM | CCNC(=O)c1ccc(Oc2ccc(CC(=O)O)cc2Cl)c(NS(=O)(=O)c2ccc(Cl)cc2Cl)c1 [reference compound] | – |
| > 1e+06 nM | – | 1.6 nM | 25.7 nM | CCNC(=O)c1ccc(Oc2cc(Br)c(CC(=O)O)cc2OC)c(NS(=O)(=O)c2ccc(F)cc2F)c1 [reference compound] | – |
| 2.2 nM | 22.9 nM | 1.3 nM | 7 nM | Cc1ccc(S(=O)(=O)Nc2cc(C(=O)NC3CCC3)ccc2Oc2cc(F)c(CC(=O)O)cc2Cl)c(Cl)c1 | – |
